Measured values reported in patent US8309558B2, “Compounds for the treatment of hepatitis C” (Bristol-Myers Squibb Company, priority 2008, dated 2012).
Like-named read-outs stand apart in the source and are kept apart here.

Columns and labels:
HCV replicon cells = experiment: HCV replicon FRET / luciferase assay (96-well plates); assay type: cell-based; conditions: Hepatitis C virus, HCV replicon, read-out: EC50
In short: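 Percent activity is background-subtracted signal relative to untreated cell wells, with background taken from maximal protease-inhibitor wells. Cytotoxicity is Alamar blue fluorescence relative to controls. Replicon inhibition was read by NS3 FRET peptide cleavage (340/490 nm) or luciferase.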

[1] = target: T1, HCV NS5B RdRp genotype 1b (Hepatitis C virus genotype 1b, UniProt Q9WMX2); experiment: Standard HCV NS5B RdRp enzyme assay; assay type: biochemical; conditions: HCV NS5B RdRp genotype 1b, read-out: IC50
T1 construct: The protein was expressed with an 18 amino acid C-terminal truncation to enhance the solubility; made in house; host or cells: E. coli BL21(DE3), pET21a vector
In short: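 Radiometric SPA measuring 3H-UMP incorporation on polyA/biotin-oligo-dT12 (6 nM/180 nM), 0.29 μM total UTP. Enzyme: NS5B 1b lacking last 18 residues, 28 nM final, 30° C for 60 min in 20 mM Hepes pH 7.5, 2.5 mM MgCl2, 2% DMSO. IC50 from seven-point curves.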

T1 sequence (Q9WMX2 2420-2992): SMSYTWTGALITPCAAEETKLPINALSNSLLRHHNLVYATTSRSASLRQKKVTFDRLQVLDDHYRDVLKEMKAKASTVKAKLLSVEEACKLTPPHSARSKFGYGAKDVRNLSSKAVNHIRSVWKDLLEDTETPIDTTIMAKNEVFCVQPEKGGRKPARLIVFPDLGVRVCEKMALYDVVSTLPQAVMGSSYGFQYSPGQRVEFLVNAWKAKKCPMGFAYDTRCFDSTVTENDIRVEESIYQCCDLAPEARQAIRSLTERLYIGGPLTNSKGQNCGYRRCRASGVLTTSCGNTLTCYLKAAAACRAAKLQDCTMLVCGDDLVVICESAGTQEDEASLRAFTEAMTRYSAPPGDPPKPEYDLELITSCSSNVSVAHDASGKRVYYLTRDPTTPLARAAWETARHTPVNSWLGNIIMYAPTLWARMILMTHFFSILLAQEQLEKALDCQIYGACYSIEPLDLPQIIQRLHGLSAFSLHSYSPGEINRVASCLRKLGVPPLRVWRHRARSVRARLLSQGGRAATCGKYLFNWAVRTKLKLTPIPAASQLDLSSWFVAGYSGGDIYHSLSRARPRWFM

Structure (SMILES) | EC50 (HCV replicon cells; Table 1a) [nM] | IC50 ([1]; Table 1a) [nM] | EC50 (HCV replicon cells; Table 1b) [nM] | IC50 ([1]; Table 1b) [nM] | further results
CNC(=O)c1c(-c2ccc(F)cc2)oc2ccc(-c3cccc(C(=O)NC4(c5ccccc5)CCC4)c3)cc12 | < 250 | < 250 |  |  | 
CNC(=O)c1c(-c2ccc(F)cc2)oc2ccc(-c3cccc(C(=O)N4CCC4)c3)cc12 | 250 to 1000 | 250 to 1000 |  |  | 
CNC(=O)c1c(-c2ccc(F)cc2)oc2ccc(-c3cc(C(=O)NCC(C)C)ccc3OCc3c[nH]c(C)n3)cc12 |  |  | < 250 | < 250 | 
CNC(=O)c1c(-c2ccc(F)cc2)oc2ccc(-c3ccc(Cl)c(C(=O)NC(C)(C)c4ccccc4)c3)cc12 | < 250 | < 250 |  |  | 
CNC(=O)c1c(-c2ccc(F)cc2)oc2ccc(-c3cccc(C(=O)N4CCC[C@H]4C(=O)N(C)C)c3)cc12 | 250 to 1000 | 250 to 1000 |  |  | 
CNC(=O)c1c(-c2ccc(F)cc2)oc2ccc(-c3cc(C(=O)NCC(C)C)ccc3OCCc3ccccn3)cc12 |  |  | < 250 | 250 to 1000 | 
CCOc1cc(C)c(-c2ccc3oc(-c4ccc(F)cc4)c(C(=O)NC)c3c2)cc1C(=O)NC1(c2ccccn2)CC1 |  |  |  |  | EC50 (HCV replicon cells; 24 h, Table 1d (class symbols)): 1 to 250 nM; IC50 ([1]; Table 1d (class symbols)): 1 to 250 nM
CNC(=O)c1c(-c2ccc(F)cc2)oc2ccc(-c3cccc(C(=O)N4CCC[C@H]4CO)c3)cc12 | 1000 to 10000 | 250 to 1000 |  |  | 
CNC(=O)c1c(-c2ccc(F)cc2)oc2ccc(-c3cc(C(=O)NC4(c5nc(C)no5)CC4)c(OC)cc3Cl)cc12 |  |  | < 250 | < 250 | 
CNC(=O)c1c(-c2ccc(F)cc2)oc2ccc(-c3cccc(C(=O)N(C)S(=O)(=O)c4ccccc4)c3)cc12 | 1000 to 10000 | > 1390 |  |  | 
CNC(=O)c1c(-c2ccc(F)cc2)oc2ccc(-c3cccc(C(=O)N4CCN(C)CC4)c3)cc12 | > 10000 | > 10000 |  |  | 
CNC(=O)c1c(-c2ccc(F)cc2)oc2ccc(-c3cc(C(=O)NCC(C)C)ccc3OCC3CCCNC3)cc12 (stereo not shown) |  |  | < 250 | < 250 | 
CNC(=O)c1c(-c2ccc(F)cc2)oc2ccc(-c3cccc(C(=O)NCc4ccncc4)c3)cc12 | 250 to 1000 | < 250 |  |  | 
CNC(=O)c1c(-c2ccc(F)cc2)oc2ccc(-c3cc(C(=O)NC4(c5ncccn5)CC4)c(OC)cc3C)cc12 |  |  | < 250 | < 250 | 
CNC(=O)c1c(-c2ccc(F)cc2)oc2ccc(-c3cc(C(=O)NC4(c5ncccn5)CC4)cc(F)c3C)c(F)c12 [drawing 668] |  |  |  |  | EC50 (HCV replicon cells; 24 h, Table 1d (class symbols)): 1 to 250 nM; IC50 ([1]; Table 1d (class symbols)): 1 to 250 nM
CNC(=O)c1c(-c2ccc(F)cc2)oc2ccc(-c3cc(C(=O)NC4(CO)CC4)ccc3C)cc12 |  |  | 1000 to 10000 | 1000 to 10000 | 
CNC(=O)c1c(-c2ccc(F)cc2)oc2ccc(-c3cc(C(=O)NC(C)(C)C)ccc3C)cc12 |  |  | < 250 | < 250 | 
CNC(=O)c1c(-c2ccc(F)cc2)oc2cc(N(C)S(C)(=O)=O)c(-c3cccc(C(=O)NC(C)(C)c4ccccc4)c3)cc12 |  |  | < 250 | < 250 | 
CNC(=O)c1c(-c2ccc(F)cc2)oc2ccc(-c3cc(C(=O)NC4(c5ccccc5)CC4)ccc3OCCO)cc12 |  |  | < 250 | < 250 | 
CNC(=O)c1c(-c2ccc(F)cc2)oc2ccc(-c3cc(C(=O)NC4(c5nnc(-c6ccc(OC)cc6)[nH]5)CC4)ccc3C)cc12 |  |  | < 250 | < 250 | 
CNC(=O)c1c(-c2ccc(F)cc2)oc2ccc(-c3cc(C(=O)NC4(c5nnc(N)o5)CC4)ccc3C)cc12 |  |  | < 250 | < 250 | 
CNC(=O)c1c(-c2ccc(F)cc2)oc2ccc(-c3cccc(C(=O)NC4(c5ccccc5)CC4)c3)cc12 [drawing 67] | < 250 | < 250 |  |  | 
CNC(=O)c1c(-c2ccc(F)cc2)oc2ccc(-c3cc(OC)ncc3F)cc12 | > 620 | > 10000 |  |  | 
CNC(=O)c1c(-c2ccc(F)cc2)oc2ccc(-c3cc(C(=O)NCC(C)C)ccc3OCCNC(N)=O)cc12 |  |  | < 250 | < 250 | 
CNC(=O)c1c(-c2ccc(F)cc2)oc2cc([N+](=O)[O-])c(-c3ccc(OC)c(C(=O)NC4(c5ccccc5)CC4)c3)cc12 |  |  | < 250 | < 250 | 
CNC(=O)c1c(-c2ccc(F)cc2)oc2ccc(-c3ccc(CO)cc3)cc12 | 250 to 1000 | > 10000 |  |  | 
